Assay results: US3985878A, “Anti-inflammatory and antirheumatic compounds and preparation” (priority 1974, dated 1976)

What was measured:
[1] = Pellets-induced granuloma test (cotton pellets); format: in vivo, rat; conditions: rat
Method: 1b. Pellets-induced granuloma test:
Another important test for the evaluation of an anti-inflammatory is that of cotton pellets. This consists of planting a sterile cotton pellet under the rat's back skin.
This pellet is left in situ for a week while the animals are treated daily with various doses of the drug being examined. Evaluation is effected by weighing the pellets taken at the given time and dried, comparing the weight of those of the treated animals with the checks.

[2] = system: fibroblast culture; assay: Production of mucopolysaccharides from fibroblast culture in vitro; format: cell-based; conditions: in vitro culture of collagen tissue
Method: a. Tests in vitro: These tests consist of the cultivation in vitro, i.e., outside the organism, of tissue of the same embriological origin in relation to the osteoarticular. Upon the growth of this tissue there is then measured the activities of the various drugs. The units of measurement of these activities is the production of glucosaminoglicanes (mucopolysaccharides measured by the turbidimetric method).
The compounds which form the subject of this invention were evaluated according to this test and compared with known anti-inflammatories.

[3] = Osteolathyrism in the rabbit (aminoacetonitrile); format: in vivo; conditions: rabbit
Method: B. Tests in vivo: Osteolathyrism in the rabbit.
Osteolathrism consists of inducing into young rabbits a dystrophy of the bone joint system, administering every day aminoacetonitrile by i.p. means, in the quantity of 100 mg/kg of body weight. With this treatment, in about 30 days, the following changes are shown in the rabbit:
Loss of weight (related to the checks physiologically treated), ptosis of the auricular pavilion, loss of fur, deformation of the front and rear limbs, deterioration of the general condition.
All this takes place because the aminoacetonitrile is a collagen tissue poison which changes the biochemical composition of the joint cartilages and the bones.
An evaluation of the therapeutic activity can be made either by biochemical evaluation, i.e. by measuring the quantity of aminosugars in these tissues, or by considering only the general symptoms, which are proportional to the diminution of the aminosugars.
In Table 5 this latter evaluation is reported, in which every symptom was evaluated by allotting it a number from 0 to 4, 4 indicating the maximum amount of damage and 0 indicating no damage.
On Table 5 there are given the results of treatment evaluated on the 25th day, comparing the groups treated only with a physiological solution, only with aminoacetonitrile, with aminoacetonitrile and CR 604, with aminoacetonitrile and Indometacin in the prescribed doses.
Each group consisted of 8 animals.

[4] = Irritant and ulceroid (gastrolesive) activity on the gastric mucosa; conditions: rat, in vivo, po
Method: 4. Irritant and ulceroid activity on the gastric mucosa
The experimental evaluation of this activity was made on rats, by the method here reported:
The compound is administered orally to rats which have fasted for 12 hours, the animals being killed 4 hours after the administration.
Regarded as positive, i.e. with stomach damage, are those animals which have at least one haemorrhage point on the stomach wall.
By ED50 there is meant that dose of the drug which can […] in 50% of the animals treated, the formation of these haemorrhages.
In Table 6 there are compared CR 604 and Indometacin, since the latter is, amongst them all, the nearest to the anti-inflammatory activity values of CR 604.

[5] = Tolerance in animals, subacute and chronic; format: in vivo; conditions: up to 6 months administration to animals, quantities greater than those recommended for human beings
Description: For these substances, and particularly for CR 604, tolerance tests were made, subacute and chronic, by up to 6 months administration to the animals.

[6] = system: uropepsinogene; format: in vivo, human; conditions: in vivo
Method: (§1) Thus for example comparing CR 604 administered in capsules of 75 mg (6 per day), with Indometacin in capsules of 25 mg (6 per day), i.e. in approximately equimolecular doses on a group of 60 subjects treated (30 with CR 604 and 30 with Indometacin, one notes that (see Table 7):
Gastric secretion of pepsin is increased by agents which irritate and damage the gastric mucosa.

[7] = system: urinary calcium; format: in vivo, human; conditions: in vivo
Method: as §1
c. […] Excretion of calcium is related to the destruction of the fibrils of the proteic bone matrix which thus also loses the calcium deposited upon it.
The administration of known anti-inflammatories brings about the lysis of these fibrils with loss of calcium.

CCCN(CCC)C(=O)C(CCC(=O)OCCCN1CCN(CCOC(=O)Cc2c(C)n(C(=O)c3ccc(Cl)cc3)c3ccc(OC)cc23)CC1)NC(=O)c1ccccc1 (racemic) [CR 604, N'-2-[1-(p-chlorobenzoyl)-5-methoxy-2-methyl-3-indoleacetoxy]ethyl-N-3-(N-benzoyl-N', N'-di-n-propyl-DL-isoglutaminoyl)-oxypropyl-piperazine]
anti-inflammatory activity (granuloma test), in words [1]: high anti-inflammatory activity | effect on growth and production of mucopolysaccharides, in words [2]: does not harm | effect on aminoacetonitrile symptoms, in words [3]: greatly modifies these toxic symptoms | gastrolesive dose, in words [4]: so high as to be of no practical importance, being roughly equal to a fatal dose | tolerance, subacute and chronic [5]: well tolerated without any special anatomical or functional lesion | uropepsinogene in urine, in words [6]: diminishes in the urine | destruction (lysis) of fibrils of proteic bone matrix, in words [7]: does not induce this destruction or reduces it | excretion of urinary calcium, in words [7]: reduction in the excretion of urinary calcium
